BigSolDB 2.1

C[C@H]1COc2c(N3CCN(C)CC3)c(F)c(N)c3c(=O)c(C(=O)O)cn1c23.Cl
solubility (mole fraction)
Details | 273.15 K | 278.15 K | 283.15 K | 288.15 K | 293.15 K | 298.15 K | 303.15 K | 308.15 K | 313.15 K | 318.15 K
in acetonitrile | 2.41e-06 | 2.73e-06 | 3.11e-06 | 3.59e-06 | 4.1e-06 | 4.68e-06 | 5.36e-06 | 6.07e-06 | 6.9e-06 | 7.84e-06
in ethanol | 9.29e-06 | 1.06e-05 | 1.22e-05 | 1.39e-05 | 1.59e-05 | 1.78e-05 | 2.02e-05 | 2.29e-05 | 2.56e-05 | 2.87e-05
in water | 0.000436 | 0.000564 | 0.000725 | 0.000971 | 0.00126 | 0.00161 | 0.00204 | 0.00253 | 0.00311 | 0.00376
